Drawing on PubChem BioAssay (NCI), this text covers GI50 and TGI for 25 molecules.

Structures are written as SMILES. Where “and” joins values, the source holds several entries; their conditions need not be identical. Equal values may be shown once.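 Five concentrations, 48 hours, 96-well plates. The concentration for 50% growth inhibition is given as GI50. TGI is the concentration that stops growth completely.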 Non-standard residues stand in square brackets, D forms with d. Residues, ends and D or L forms follow the SMILES beside them. *: point of attachment. ONb = O=[N+]([O-])c1ccc(CO*)cc1; AllylGly = C=CC[CH](N)C(=O)O; Boc = CC(C)(C)OC(=O)* A value given as a limit tells only on which side of the number the result lay.

Assay in all cases: inhibition of tumour cell growth, NCI panel, 48 h
Test [1] concerns A498 renal.
Test [2] concerns A549 NSCLC.
For test [3], the system named is HL-60(TB) leukemia.
Test [4] relates to MDA-MB-231 breast.
For test [5], the system named is NCI-H23 lung.
Test [6] has as its system OVCAR-8 ovarian.
The subject of test [7] is U251 CNS.
Test [8] has as its system UACC-62 melanoma.
Test [9] deals with DU-145 prostate.
Test [10] has as its system EKVX NSCLC.

As to `N#Cc1cn(C2OC(CO)C(O)C2O)c2ncnc(N)c12` (centres undefined), the GI50 is 0.045 µM in [1]; under 0.01 µM in test [2]; 0.045 µM in test [3]; 0.0256 µM in test [5]; 0.0469 µM and 0.045 µM in test [6]; 0.0276 µM in test [7]. For the same molecule, the GI50 in test [8] was under 0.0136 µM. In addition, the TGI is 1.51 µM and 0.634 µM in test [1]; over 450 µM in [2]; over 100 µM in test [4]; 0.889 µM and 0.178 µM in test [6]; 0.156 µM and 0.0603 µM and 0.115 µM in test [8].
Consider `COc1ccc2cc(C(=O)/C=C/c3cc(OC)c(OC)c(OC)c3)ccc2c1`, for which the GI50 in test [2] is 2.56 µM; in test [9], 2.06 µM; in test [10] it was 4.05 µM; in test [3], 5.34 µM; in test [4], 1.02 µM; in [5] it was 1.77 µM. The GI50 was 2.01 µM in test [6], 1.68 µM in test [7] and 5.25 µM in [8]. In addition, the TGI in [2] was determined as 44.5 µM; in test [9], 11.2 µM; in test [10], 29.5 µM; in test [3], 20.9 µM; in [4], 15.8 µM; in [5] it was 11.2 µM. Further, the TGI in test [6] is over 50 µM; in test [7] it was 9.48 µM; in [8], 12.7 µM.
In the case of `ClCc1cccc(Cn2cnc3c(Cl)ncnc32)c1`, the GI50 in test [1] is 17.3 µM; in test [2], 19.4 µM; in [9], 11.2 µM; in test [10], 18.6 µM; in [4], 1.99 µM; in test [5], 1.92 µM. The GI50 is 22.1 µM in test [6], 1.8 µM in test [7] and 1.82 µM in [8]. In addition, the TGI turned out to be 31.9 µM in test [1]; 39.4 µM in test [2]; 24 µM in [9]; 34.1 µM in [10]; 4.04 µM in test [4]; 4.07 µM in test [5]. The TGI in [6] amounted to 42 µM; in [7] it was 3.48 µM; in test [8], 3.4 µM.
For the molecule `O=C(c1ccccc1)C(C(=O)c1ccccc1)C1(O)C(=O)c2ccccc2C1=O`, the TGI is over 100 µM in test [1]; over 100 µM in [2]; over 100 µM in [10]; 46.9 µM in test [3]; 84.6 µM in test [5]; over 100 µM in test [6]. Moreover, the TGI in [7] and in test [8] was over 100 µM each time.
On to `Cc1ccc(-[n+]2c3cc(N)c(C)cc3nc3cc(C)c(Nc4ccccc4)cc32)cc1`, for which the GI50 in test [1] was 0.119 µM; in [2] it was 0.0441 µM; in test [9], 0.0534 µM; in test [10] it was 0.0651 µM; in [3], 0.102 µM; in test [6] it was 0.103 µM. The GI50 in test [8] was 0.236 µM. Also, the TGI in test [1] is 0.438 µM; in test [2], 1.19 µM; in test [9], 1.08 µM; in test [10] it was 1.03 µM; in test [3] it was 0.482 µM; in test [6], over 100 µM. Moreover, the TGI in test [8] was found to be 0.979 µM.
As for `CCOc1ccccc1NC(=O)C(=O)CC(=O)c1c(C)n([O-])c2ccccc2[n+]1=O`, the TGI in [1], in test [2], in test [10], in [3], in [5] and in test [6] was over 100 µM in each case. The TGI in test [7] and in test [8] was over 100 µM in each case.
As to `O=C1CC(O)C=C1Nc1ccc(Cl)cc1` (centres undefined), the TGI is 32.6 µM in test [1]; 35.5 µM in test [2]; 60.8 µM in [10]; 95.6 µM in test [3]; over 100 µM in test [5]; over 100 µM in [6]. The TGI is over 100 µM in test [7] and 5.14 µM in [8].
Turning to `N#CCC1COc2ccccc2O1` (centres undefined), the TGI in test [2], in test [9], in test [3], in test [4], in test [5] and in test [6] was over 10 µM throughout. Further, the TGI in test [7] and in [8] was over 10 µM each time.
On to `Cn1c2c(c3ccccc31)CCN(CCCCN1CCc3c(n(C)c4ccccc34)C1=O)C2`, for which the TGI in test [1], in test [2], in [10], in test [3], in test [5] and in test [6] was over 100 µM in each case. Moreover, the TGI in [7] and in test [8] was over 100 µM in each case.
For `N#Cc1c(Sc2ccccc2N)cccc1Sc1ccccc1N`, the GI50 in [2] was 56.9 µM; in test [10], 35.6 µM; in test [3], 16.4 µM; in test [4] it was 49.8 µM; in [5], 59 µM; in test [6], 53.8 µM. For the same molecule, the GI50 is 35.6 µM in [7] and 14.7 µM in [8].
As for `COc1ccc(-c2nc3sc(C)cn3c2/C=C/C(=O)c2cc(OC)c(OC)c(OC)c2)cc1`, the GI50 in test [2] is 3.37 µM; in [9], 3.69 µM; in test [10], 4.04 µM; in [3], 2.49 µM; in [4], 3.78 µM; in test [6], 3.23 µM. Also, the GI50 in [7] was 4.04 µM; in [8] it was 2.82 µM. Moreover, the TGI in test [2] is over 100 µM; in test [9], over 100 µM; in test [10], over 100 µM; in test [3], 7.48 µM; in test [4], over 100 µM; in [6], 8.57 µM. Further, the TGI in [7] and in test [8] was over 100 µM each time.
With `Cc1cc2c(c(C#N)c1C)NC(=O)CCC2=O`, the TGI in test [1], in test [2], in [10], in test [3], in test [5] and in test [6] was over 100 µM in each case. For the same molecule, the TGI in [7] and in test [8] was over 100 µM in each case.
As for `C=CCC(NC(=O)OC(C)(C)C)C(=O)NC(CCC(=O)OCc1ccc([N+](=O)[O-])cc1)C(N)=O` (centres undefined) (Boc-[AllylGly]-Glu(ONb)-NH2; configuration not given here), the GI50 in test [1] was 13.4 mg/L; in test [2] it was 52.3 mg/L; in test [10], 22.8 mg/L; in [3], 53.1 mg/L; in test [4], 93 mg/L; in test [5] it was 29.6 mg/L. In addition, the GI50 in [6] was 35.8 mg/L; in [7], 65.2 mg/L; in test [8], 19.5 mg/L. Moreover, the TGI in test [1] was 27.9 mg/L; in [10], 61.7 mg/L; in test [5], 91.8 mg/L; in test [8] it was 38.9 mg/L.
As to `COc1cc(OC)c([C@@H]2OC(=O)C3C2C(=O)O[C@H]3c2cc(OC)c(OC)cc2OC)cc1OC` (some centres undefined), the TGI in [1], in test [2], in test [10], in test [3], in [5] and in test [6] was over 100 µM throughout. Besides, the TGI in test [7] and in test [8] was over 100 µM throughout.
In the case of `CCC[CH2][Sn-]([CH2]CCC)([CH2]CCC)[O]c1cc(Cl)c(Cl)cc1Cl`, the GI50 in [1] was 0.22 µM; in test [2], 0.205 µM; in test [10], 0.216 µM; in test [3] it was 0.0184 µM; in test [5] it was 0.23 µM; in test [6], 0.221 µM. Further, the GI50 in test [7] was 0.179 µM; in test [8], 0.152 µM. For the same molecule, the TGI in [1] is 0.609 µM; in test [2], 0.502 µM; in test [10], 0.9 µM; in [3], 0.167 µM; in test [5] it was 1.17 µM; in test [6], 0.557 µM. Further, the values for the TGI in [7] and in test [8] were 0.35 µM and 0.394 µM, respectively.
As to `CCOC(=O)[C@@]1(C)C=C2O[C@@H]3OC4(CCCCC4)O[C@@H]3C2=C2C(O)=CC=C(O)[C@]21C(=O)OC`, the TGI in [1], in test [2], in [10], in test [3], in [5] and in test [6] was over 68 µM in each case. The TGI in test [7] and in test [8] was over 68 µM each time.
On to `CCc1cccc(C(C)C)c1NC(=O)C(=O)C(Cc1nc2ccccc2[nH]c1=O)C(=O)OC` (centres undefined), for which the TGI in test [1], in test [2], in [10], in [3], in [5] and in test [6] was over 100 µM each time. In addition, the TGI in test [7] and in test [8] was over 100 µM throughout.
For `CC1=C(C)C(=O)c2c(cc3ccc4ccccc4n23)C1=O`, the TGI in test [1], in test [2], in [10], in test [3], in test [5] and in [6] was over 100 µM throughout. Moreover, the TGI in test [7] and in [8] was over 100 µM in each case.
`CC(=O)O/C=C(/C=C/OC(C)=O)C(C/C=C(\C)C#CC=C(C)C)OC(C)=O` (centres undefined): the TGI in [1] was over 100 µM; in test [2], over 100 µM; in [10] it was over 100 µM; in test [3] it was 42.4 µM; in test [5], over 100 µM; in [6] it was over 100 µM. In addition, the results for the TGI in [7] and in test [8] were over 100 µM and 77.7 µM, respectively.
As for `CC1=C(C(=O)Nc2ccccc2C)C(c2ccccc2)C(C(=O)Nc2ccccc2C)=C(C)N1`, the TGI was over 100 µM in test [1]; over 100 µM in test [2]; over 100 µM in test [10]; 43.3 µM in test [3]; over 100 µM in [5]; over 100 µM in [6]. The TGI in test [7] and in [8] was over 100 µM each time.
For the molecule `COC(=O)C1CC2(CC3=C1CCCC3)OCCO2` (centres undefined), the TGI in test [1], in test [2], in test [10], in test [3], in test [5] and in test [6] was over 100 µM throughout. For the same molecule, the TGI in [7] and in test [8] was over 100 µM throughout.
As to `Cc1nc2c(nc1C)C(=O)c1cc(O)ccc1C2=O`, the TGI in test [1] was over 100 µM; in test [2] it was over 100 µM; in [10], over 100 µM; in test [3], over 67.3 µM; in test [5], over 100 µM; in test [6], over 100 µM. The TGI in [7] is over 100 µM; in [8] it was 53.5 µM.
In the case of `CCOC(=O)c1c2c(n3ccc(NC(=O)CCN4CCCC4)cc13)C(=O)c1ncccc1C2=O`, the GI50 was 1.03 µM in test [2]; 1.46 µM in test [9]; 1.46 µM in test [10]; 1.07 µM in test [3]; 1.84 µM in test [4]; 1.38 µM in [6]. Also, the GI50 in test [7] is 1.27 µM; in test [8], 1.39 µM. The TGI in [2] stood at 2.67 µM; in test [9], 2.96 µM; in test [10], 3.58 µM; in [3], 3.32 µM; in test [4], 3.83 µM; in [6] it was 3.49 µM. In addition, the TGI in test [7] stood at 2.82 µM; in test [8] it was 3.22 µM.
For `O=C(CNc1nncs1)NO`, the TGI in [1], in [2], in test [10], in [3], in test [5] and in test [6] was over 100 µM in each case. Besides, the TGI in test [7] and in [8] was over 100 µM throughout.
Consider `Nn1c(-c2ccccc2)nc2ccc(Br)cc2c1=O`, for which the TGI in test [1] is over 100 µM; in test [2] it was over 100 µM; in [10], over 100 µM; in test [3], 76.8 µM; in [5] it was over 100 µM; in test [6], over 100 µM. Further, the TGI in [7] and in test [8] was over 100 µM throughout.
